Strand notation (5' to 3'): a small letter for the sugar, then the base; units joined by * are phosphorothioate-linked, units joined directly phosphodiester-linked; [ ] holds rarer units or linkages, { } end groups; capitals alone tell only the bases. k = constrained ethyl (cEt); [5mC] = 5-methylcytosine; d = 2'-deoxy (DNA)
System: Yap1 mRNA
Test: Antisense inhibition of human Yap1 in A-431 cells by cEt gapmers, single dose (Example 3, RTS36584)
Assay type: cell-based
Outline: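 Read-out is Yap1 mRNA as percent of untreated control, by quantitative RT-PCR normalized to total RNA (RiboGreen). Cells (A-431) received 2,000 nM of 3-10-3 cEt phosphorothioate gapmer via free uptake for roughly 48 hours.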

[1] = Table 12, A-431 cells, 5,000 cells per well, free uptake, 2,000 nM modified oligonucleotide, approx. 48 hours, RTS36584, normalized to RIBOGREEN, Yap1 mRNA relative to untreated control cells
[2] = Table 10, A-431 cells, 5,000 cells per well, free uptake, 2,000 nM oligonucleotide, approx. 48 hours, primer probe set RTS36584, Yap1 mRNA normalized to RIBOGREEN, percent of untreated control
[3] = Table 26, Yap1 mRNA by 3-10-3 cEt gapmers targeting SEQ ID NO.: 1, and 2, percent of untreated control
[4] = Table 34, Yap1 mRNA as percent of untreated control, 3-10-3 cEt gapmers targeting SEQ ID NO: 1 and 2, single dose
[5] = Table 27, Yap1 mRNA by 3-10-3 cEt gapmers targeting SEQ ID NO.: 1, and 2, percent of untreated control
[6] = Table 28, Yap1 mRNA as percent of untreated control, 3-10-3 cEt gapmers targeting SEQ ID NO.: 1, and 2
[7] = Table 35, Yap1 mRNA as percent of untreated control, 3-10-3 cEt gapmers targeting SEQ ID NO: 1 and 2, single dose
[8] = Table 11, A-431 cells, 5,000 cells per well, free uptake, 2,000 nM oligonucleotide, approx. 48 hours, primer probe set RTS36584, Yap1 mRNA normalized to RIBOGREEN, percent of untreated control
[9] = Table 13, A-431 cells, 5,000 cells per well, free uptake, 2,000 nM modified oligonucleotide, approx. 48 hours, RTS36584, normalized to RIBOGREEN, Yap1 mRNA relative to untreated control cells
[10] = Table 29, Yap1 mRNA as percent of untreated control, 3-10-3 cEt gapmers targeting SEQ ID NO.: 1, and 2

958731 (antisense kG*k[5mC]*kT*d[5mC]*dT*dG*dT*d[5mC]*dA*dG*dT*dT*dA*kT*k[5mC]*k[5mC]) [Compound 958731]
YAP1 (% UTC) (Table 9, A-431 cells, 5,000 cells per well, free uptake, 2,000 nM, approximately 48 hours, RTS36584, normalized to RIBOGREEN, Yap1 mRNA relative to untreated control cells): 7 % UTC

958699 (antisense kG*kA*k[5mC]*dT*dA*dG*dA*dA*dA*dG*dA*dT*d[5mC]*kA*kT*k[5mC]) [Compound 958699]
YAP1 (% UTC) [1]: 20 % UTC

958572 (kA*kT*kT*dA*dT*dA*dG*dG*d[5mC]*dA*d[5mC]*dT*d[5mC]*k[5mC]*kT*kT; antisense) [Compound 958572]
YAP1 (% UTC) [2]: 5 % UTC

958559 (kA*kA*kT*dT*d[5mC]*dA*d[5mC]*dA*dA*d[5mC]*d[5mC]*dA*dA*k[5mC]*kT*kA; antisense) [Compound 958559]
YAP1 (% UTC) [1]: 17 % UTC

1076268 (kG*kT*kA*d[5mC]*dA*dA*dT*dA*dA*dT*dG*d[5mC]*dT*kT*k[5mC]*k[5mC]; antisense) [compound 1076268]
YAP1 (% UTC) [3]: 10 % UTC

958679 (kG*kT*kA*dA*d[5mC]*dT*dG*d[5mC]*d[5mC]*dA*d[5mC]*dA*dG*kT*kT*kA; antisense) [Compound 958679]
YAP1 (% UTC) [1]: 77 % UTC

1075404 (antisense kA*kT*kA*dT*dA*dA*d[5mC]*d[5mC]*dT*dG*dA*dA*d[5mC]*kT*kA*kA) [compound 1075404]
YAP1 (% UTC) [3]: 102 % UTC

1076564 (kT*kA*kA*dA*dG*dT*dA*dA*dT*dG*d[5mC]*dT*dA*k[5mC]*kA*kG; antisense) [compound 1076564]
YAP1 (% UTC) [4]: 77 % UTC

1075501 (k[5mC]*kA*kT*dA*dA*dA*dT*dT*dA*dA*dG*d[5mC]*d[5mC]*kA*kA*k[5mC]; antisense) [compound 1075501]
YAP1 (% UTC) [5]: 67 % UTC

958354 (antisense kG*kT*k[5mC]*dG*dG*dT*d[5mC]*dT*d[5mC]*d[5mC]*dG*dA*dG*kT*k[5mC]*k[5mC]) [Compound 958354]
YAP1 (% UTC) (Table 8, A-431 cells, 5,000 cells per well, free uptake, 2,000 nM, approximately 48 hours, RTS36584, normalized to RIBOGREEN, Yap1 mRNA relative to untreated control cells): 31 % UTC

1075092 (kT*kT*kA*dA*dA*dA*d[5mC]*dA*dA*d[5mC]*dG*dA*dA*kT*kG*kA; antisense) [compound 1075092]
YAP1 (% UTC) [4]: 63 % UTC

1075310 (antisense kG*kT*kA*dA*dT*dT*dA*dA*dA*d[5mC]*dG*dA*dA*kA*k[5mC]*kA) [compound 1075310]
YAP1 (% UTC) [6]: 84 % UTC

1074869 (kA*kG*kT*dA*d[5mC]*d[5mC]*dT*dA*dA*d[5mC]*dA*dT*dA*kT*kG*kA; antisense) [compound 1074869]
YAP1 (% UTC) [7]: 31 % UTC

1075662 (antisense kA*kA*kG*dG*dG*dA*dT*dA*d[5mC]*dA*dA*dG*dT*kG*kT*kT) [compound 1075662]
YAP1 (% UTC) [6]: 78 % UTC

1075022 (antisense kA*kT*kT*dT*dA*d[5mC]*dA*dA*d[5mC]*d[5mC]*dT*dA*dG*kA*kT*kT) [compound 1075022]
YAP1 (% UTC) [6]: 91 % UTC

958778 (antisense kG*k[5mC]*kT*dA*d[5mC]*d[5mC]*dT*dG*dG*dA*dG*d[5mC]*dG*kA*kA*kG) [Compound 958778]
YAP1 (% UTC) [8]: 75 % UTC

958814 (kG*kG*k[5mC]*dT*dA*dT*dG*d[5mC]*d[5mC]*dT*d[5mC]*dT*d[5mC]*kT*kT*kA; antisense) [Compound 958814]
YAP1 (% UTC) [1]: 214 % UTC

1074964 (antisense kT*kT*kA*dG*dG*d[5mC]*dA*dA*dG*d[5mC]*dA*dG*d[5mC]*kT*kA*kA) [compound 1074964]
YAP1 (% UTC) [4]: 112 % UTC

1075854 (k[5mC]*kT*kT*dA*dT*dA*dA*dT*dA*dG*dA*dG*d[5mC]*kT*kA*kA; antisense) [compound 1075854]
YAP1 (% UTC) [6]: 52 % UTC

958698 (antisense k[5mC]*kT*kT*dA*dT*dT*dA*dG*d[5mC]*d[5mC]*d[5mC]*dT*d[5mC]*kA*kA*kA) [Compound 958698]
YAP1 (% UTC) [8]: 30 % UTC

958647 (kT*kA*kG*dG*dA*dA*dG*dT*dT*dG*dT*dT*dG*kA*k[5mC]*k[5mC]; antisense) [Compound 958647]
YAP1 (% UTC) [2]: 11 % UTC

958820 (kG*kA*k[5mC]*d[5mC]*dA*dG*dT*dA*dA*dG*dA*dA*dG*k[5mC]*k[5mC]*kA; antisense) [Compound 958820]
YAP1 (% UTC) [9]: 49 % UTC

958588 (kG*kT*kG*dT*dA*d[5mC]*dT*dT*dA*dG*dG*dT*dG*kA*k[5mC]*kT; antisense) [Compound 958588]
YAP1 (% UTC) [8]: 10 % UTC

958475 (antisense k[5mC]*k[5mC]*kG*dG*dT*dG*d[5mC]*dA*dT*dG*dT*dG*dT*k[5mC]*kT*k[5mC]) [Compound 958475]
YAP1 (% UTC) [9]: 37 % UTC

958800 (antisense kT*k[5mC]*kG*dA*dT*dA*dA*dT*dA*dT*dA*dT*dG*kG*k[5mC]*kA) [Compound 958800]
YAP1 (% UTC) [9]: 22 % UTC

1074381 (kA*kG*kT*d[5mC]*dT*dG*dG*dG*dA*dA*dA*d[5mC]*dG*kG*kT*kT; antisense) [compound 1074381]
YAP1 (% UTC) [5]: 16 % UTC

958618 (antisense kA*kG*k[5mC]*d[5mC]*dA*dA*dG*dA*dG*dG*dT*dG*dG*kT*k[5mC]*kT) [Compound 958618]
YAP1 (% UTC) [8]: 36 % UTC

1075373 (antisense kT*kA*kT*dA*dT*dA*dT*dA*dG*dA*d[5mC]*dT*dT*kG*kA*kG) [compound 1075373]
YAP1 (% UTC) [5]: 13 % UTC

1076052 (kG*k[5mC]*kA*dA*dT*dA*dA*dA*dG*d[5mC]*dT*dG*dA*kA*k[5mC]*kT; antisense) [compound 1076052]
YAP1 (% UTC) [4]: 23 % UTC

958818 (kG*kT*kT*dG*dT*d[5mC]*dA*dA*d[5mC]*dT*d[5mC]*dT*dA*kG*kG*kG; antisense) [Compound 958818]
YAP1 (% UTC) [8]: 23 % UTC

958490 (kG*kT*kG*dA*d[5mC]*dA*dT*dG*dA*dA*dG*d[5mC]*dA*kT*k[5mC]*kT; antisense) [Compound 958490]
YAP1 (% UTC) [9]: 5 % UTC

1074223 (antisense kG*kA*kA*dA*d[5mC]*dA*dG*d[5mC]*dT*d[5mC]*d[5mC]*d[5mC]*dA*kA*k[5mC]*kT) [compound 1074223]
YAP1 (% UTC) [10]: 48 % UTC

958673 (kA*kG*kA*dA*d[5mC]*dT*dT*dA*dG*dT*dT*d[5mC]*d[5mC]*k[5mC]*kT*kT; antisense) [Compound 958673]
YAP1 (% UTC) [8]: 30 % UTC

958472 (antisense kT*k[5mC]*k[5mC]*dT*dT*dA*dG*dA*dT*d[5mC]*d[5mC]*dT*dT*k[5mC]*kA*k[5mC]) [Compound 958472]
YAP1 (% UTC) [2]: 5 % UTC

958530 (kG*kA*kG*d[5mC]*dA*dA*dG*dT*d[5mC]*dT*dT*dG*dT*kA*kA*kG; antisense) [Compound 958530]
YAP1 (% UTC) [9]: 20 % UTC

1074799 (kT*kG*k[5mC]*dT*dT*dT*dG*dG*dA*dA*dG*dA*dT*k[5mC]*kT*kG) [compound 1074799]
YAP1 (% UTC) [10]: 8 % UTC

1075285 (antisense kT*kA*kT*dA*d[5mC]*dA*dT*dA*dG*dT*d[5mC]*dA*dA*kT*kT*k[5mC]) [compound 1075285]
YAP1 (% UTC) [7]: 60 % UTC

1075732 (kA*kA*kT*dA*dA*d[5mC]*d[5mC]*dT*d[5mC]*dG*dA*dG*dT*kG*k[5mC]*kT; antisense) [compound 1075732]
YAP1 (% UTC) [4]: 36 % UTC

1076116 (kG*kA*kA*dA*dA*dT*dA*dG*d[5mC]*d[5mC]*d[5mC]*dA*dT*kT*kA*kG; antisense) [compound 1076116]
YAP1 (% UTC) [4]: 25 % UTC

958564 (kT*k[5mC]*k[5mC]*dA*dA*dA*dT*dT*dG*dA*dA*dG*dG*kG*k[5mC]*k[5mC]; antisense) [Compound 958564]
YAP1 (% UTC) [1]: 62 % UTC

— patent US11214803B2, “Modulators of YAP1 expression” (Ionis Pharmaceuticals, Inc., priority 2019, dated 2022)
